Columns and labels:
CCRF-CEM = test: Growth inhibition of human CCRF-CEM cells after 48 hrs by SRB staining method; format: functional; conditions: for CC50: read-out: pLC50 (the source's name) (converted); for TGI: read-out: pTGI (converted)
SW-620 = test: Growth inhibition of human SW620 cells after 48 hrs by SRB staining method; format: functional; conditions: SW-620, 48 h; for CC50: read-out: pLC50 (the source's name) (converted); for TGI: read-out: pTGI (converted)
786-0 = test: Growth inhibition of human 786-0 cells after 48 hrs by SRB staining method; format: functional; conditions: 786-0, 48 h; for CC50: read-out: pLC50 (the source's name) (converted); for TGI: read-out: pTGI (converted)
EKVX = test: Growth inhibition of human EKVX cells after 48 hrs by SRB staining method; format: functional; conditions: for CC50: read-out: pLC50 (the source's name) (converted); for TGI: read-out: pTGI (converted)
DU-145 = test: Growth inhibition of human DU145 cells after 48 hrs by SRB staining method; format: functional; conditions: DU-145, 48 h; for CC50: read-out: pLC50 (the source's name) (converted); for TGI: read-out: pTGI (converted)
HT-29 = test: Growth inhibition of human HT29 cells after 48 hrs by SRB staining method; format: functional; conditions: HT-29, 48 h; for TGI: read-out: pTGI (converted)
T47D = test: Growth inhibition of human T47D cells after 48 hrs by SRB staining method; format: functional; conditions: for CC50: read-out: pLC50 (the source's name) (converted); for TGI: read-out: pTGI (converted)
SK-OV-3 = test: Growth inhibition of human SKOV3 cells after 48 hrs by SRB staining method; format: functional; conditions: SK-OV-3, 48 h; for CC50: read-out: pLC50 (the source's name) (converted); for TGI: read-out: pTGI (converted)
SNB-75 = test: Growth inhibition of human SNB75 cells after 48 hrs by SRB staining method; format: functional; conditions: SNB-75, 48 h
MDA-N = test: Growth inhibition of human MDA-N cells after 48 hrs by SRB staining method; format: functional; conditions: for CC50: read-out: pLC50 (the source's name) (converted); for TGI: read-out: pTGI (converted)
COLO 205 = test: Growth inhibition of human COLO205 cells after 48 hrs by SRB staining method; format: functional; conditions: COLO 205, 48 h; for TGI: read-out: pTGI (converted)
SF-295 = test: Growth inhibition of human SF295 cells after 48 hrs by SRB staining method; format: functional; conditions: SF-295, 48 h; for TGI: read-out: pTGI (converted)
[1] = Growth inhibition of human HS 578T cells after 48 hrs by SRB staining method; format: functional; conditions: for CC50: read-out: pLC50 (the source's name) (converted); for TGI: read-out: pTGI (converted)
SR = test: Growth inhibition of human SR cells after 48 hrs by SRB staining method; format: functional; conditions: for CC50: read-out: pLC50 (the source's name) (converted); for TGI: read-out: pTGI (converted)
HOP-92 = test: Growth inhibition of human HOP92 cells after 48 hrs by SRB staining method; format: functional; conditions: HOP-92, 48 h
HCC 2998 = test: Growth inhibition of human HCC2998 cells after 48 hrs by SRB staining method; format: functional; conditions: HCC 2998, 48 h
SK-MEL-2 = test: Growth inhibition of human SK-MEL-2 cells after 48 hrs by SRB staining method; format: functional; conditions: SK-MEL-2, 48 h; for TGI: read-out: pTGI (converted)
HCT-15 = test: Growth inhibition of human HCT15 cells after 48 hrs by SRB staining method; format: functional; conditions: HCT-15, 48 h; for TGI: read-out: pTGI (converted)
HL-60 = test: Growth inhibition of human HL60 cells after 48 hrs by SRB staining method; format: functional; conditions: HL-60, 48 h; for CC50: read-out: pLC50 (the source's name) (converted); for TGI: read-out: pTGI (converted)
Dihydrofolate reductase = biological target: T1, Dihydrofolate reductase (Homo sapiens, UniProt P00374); test: Inhibition of human dihydrofolate reductase
T1 sequence (P00374 whole entry): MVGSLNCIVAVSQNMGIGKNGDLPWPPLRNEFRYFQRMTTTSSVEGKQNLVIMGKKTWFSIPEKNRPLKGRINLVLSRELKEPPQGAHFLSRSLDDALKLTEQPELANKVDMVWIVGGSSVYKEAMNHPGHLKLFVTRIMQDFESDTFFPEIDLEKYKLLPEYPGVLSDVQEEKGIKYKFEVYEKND

BT-549 = test: Growth inhibition of human BT549 cells after 48 hrs by SRB staining method; format: functional; conditions: BT-549, 48 h; for CC50: read-out: pLC50 (the source's name) (converted); for TGI: read-out: pTGI (converted)
U-251 = test: Growth inhibition of human U251 cells after 48 hrs by SRB staining method; format: functional; conditions: U-251, 48 h; for TGI: read-out: pTGI (converted)
LOX IMVI = test: Growth inhibition of human LOX IMVI cells after 48 hrs by SRB staining method; format: functional; conditions: for TGI: read-out: pTGI (converted)
K562 = test: Growth inhibition of human K562 cells after 48 hrs by SRB staining method; format: functional; conditions: K562, 48 h; for CC50: read-out: pLC50 (the source's name) (converted); for TGI: read-out: pTGI (converted)
UACC-257 = test: Growth inhibition of human UACC257 cells after 48 hrs by SRB staining method; format: functional; conditions: UACC-257, 48 h; for TGI: read-out: pTGI (converted)
IGROV-1 = test: Growth inhibition of human IGROV1 cells after 48 hrs by SRB staining method; format: functional; conditions: IGROV-1, 48 h; for TGI: read-out: pTGI (converted)
NCI-H460 = test: Growth inhibition of human NCI-H460 cells after 48 hrs by SRB staining method; format: functional; conditions: NCI-H460, 48 h; for TGI: read-out: pTGI (converted)
MOLT-4 = test: Growth inhibition of human MOLT4 cells after 48 hrs by SRB staining method; format: functional; conditions: MOLT-4, 48 h

Structure (SMILES): COc1cc(Nc2nc3cc(N)cc(N)c3nc2-c2ccccc2)cc(OC)c1
- GI50 (CCRF-CEM): < 0.01 µM
- CC50 (CCRF-CEM): 0.977 µM
- TGI (CCRF-CEM): 0.166 µM
- GI50 (SW-620): 26.9 µM
- CC50 (SW-620): > 100 µM
- TGI (SW-620): > 100 µM
- GI50 (786-0): 17.8 µM
- CC50 (786-0): > 100 µM
- TGI (786-0): 51.3 µM
- GI50 (EKVX): 13.2 µM
- CC50 (EKVX): > 100 µM
- TGI (EKVX): 64.6 µM
- GI50 (DU-145): 22.9 µM
- CC50 (DU-145): > 100 µM
- TGI (DU-145): > 100 µM
- GI50 (HT-29): 27.5 µM
- LC50 (HT-29): > 100 µM
- TGI (HT-29): > 100 µM
- GI50 (T47D): 4.47 µM
- CC50 (T47D): > 100 µM
- TGI (T47D): 22.9 µM
- GI50 (SK-OV-3): 6.61 µM
- CC50 (SK-OV-3): > 100 µM
- TGI (SK-OV-3): 39.8 µM
- GI50 (SNB-75): 3.72 µM
- LC50 (SNB-75): > 100 µM
- TGI (SNB-75; read-out: pTGI (converted)): 44.7 µM
- GI50 (MDA-N): 12.9 µM
- CC50 (MDA-N): 100 µM
- TGI (MDA-N): 36.3 µM
- GI50 (COLO 205): 14.5 µM
- LC50 (COLO 205): 67.6 µM
- TGI (COLO 205): 31.6 µM
- GI50 (SF-295): 12.6 µM
- LC50 (SF-295): > 100 µM
- TGI (SF-295): 58.9 µM
- GI50 [1]: 11 µM
- CC50 [1]: > 100 µM
- TGI [1]: 63.1 µM
- GI50 (SR): 5.62 µM
- CC50 (SR): > 100 µM
- TGI (SR): > 100 µM
- LC50 (HOP-92): > 100 µM
- GI50 (HCC 2998): 24.5 µM
- LC50 (HCC 2998): > 100 µM
- TGI (HCC 2998; read-out: pTGI (converted)): > 100 µM
- GI50 (SK-MEL-2): 12 µM
- LC50 (SK-MEL-2): > 100 µM
- TGI (SK-MEL-2): 63.1 µM
- GI50 (HCT-15): 20 µM
- LC50 (HCT-15): > 100 µM
- TGI (HCT-15): > 100 µM
- GI50 (HL-60): 10 µM
- CC50 (HL-60): > 100 µM
- TGI (HL-60): > 100 µM
- Ki (Dihydrofolate reductase): 0.6 µM
- GI50 (BT-549): 4.68 µM
- CC50 (BT-549): > 100 µM
- TGI (BT-549): 31.6 µM
- GI50 (U-251): 22.9 µM
- LC50 (50% lethal concentration) (U-251): > 100 µM
- TGI (U-251): > 100 µM
- GI50 (LOX IMVI): 15.1 µM
- LC50 (LOX IMVI): > 100 µM
- TGI (LOX IMVI): 50.1 µM
- GI50 (K562): 27.5 µM
- CC50 (K562): > 100 µM
- TGI (K562): > 100 µM
- GI50 (UACC-257): 15.8 µM
- LC50 (UACC-257): > 100 µM
- TGI (UACC-257): 47.9 µM
- GI50 (IGROV-1): 2.69 µM
- LC50 (IGROV-1): > 100 µM
- TGI (IGROV-1): 17 µM
- GI50 (NCI-H460): 7.94 µM
- LC50 (concentration killing 50% of cells) (NCI-H460): > 100 µM
- TGI (NCI-H460): 52.5 µM

Structure (SMILES): COc1cc(Nc2nc3cc(N)cc(N)c3nc2-c2ccccc2)cc(OC)c1OC
- GI50 (CCRF-CEM): 4.37 µM
- CC50 (CCRF-CEM): > 100 µM
- TGI (CCRF-CEM): 41.7 µM
- GI50 (SW-620): 24 µM
- CC50 (SW-620): > 100 µM
- TGI (SW-620): > 100 µM
- GI50 (786-0): 14.5 µM
- CC50 (786-0): > 100 µM
- TGI (786-0): 40.7 µM
- GI50 (EKVX): 17.8 µM
- CC50 (EKVX): > 100 µM
- TGI (EKVX): 47.9 µM
- GI50 (DU-145): 21.9 µM
- CC50 (DU-145): > 100 µM
- TGI (DU-145): 74.1 µM
- GI50 (MOLT-4): 2.57 µM
- CC50 (MOLT-4; read-out: pLC50 (the source's name) (converted)): 56.2 µM
- TGI (MOLT-4; read-out: pTGI (converted)): 18.2 µM
- GI50 (HT-29): 33.1 µM
- LC50 (HT-29): 74.1 µM
- TGI (HT-29): 34.7 µM
- GI50 (T47D): 6.03 µM
- CC50 (T47D): 95.5 µM
- TGI (T47D): 31.6 µM
- GI50 (SK-OV-3): 22.9 µM
- CC50 (SK-OV-3): > 100 µM
- TGI (SK-OV-3): 57.5 µM
- GI50 (MDA-N): 10.5 µM
- CC50 (MDA-N): 93.3 µM
- TGI (MDA-N): 31.6 µM
- GI50 (COLO 205): 14.1 µM
- LC50 (COLO 205): 52.5 µM
- TGI (COLO 205): 26.9 µM
- GI50 (SF-295): 15.8 µM
- LC50 (SF-295): > 100 µM
- TGI (SF-295): 42.7 µM
- GI50 [1]: 15.1 µM
- CC50 [1]: > 100 µM
- TGI [1]: 77.6 µM
- GI50 (SR): 3.31 µM
- CC50 (SR): 72.4 µM
- TGI (SR): 15.8 µM
- GI50 (HOP-92): 2.75 µM
- LC50 (HOP-92): 91.2 µM
- TGI (HOP-92; read-out: pTGI (converted)): 20.9 µM
- GI50 (SK-MEL-2): 15.8 µM
- LC50 (SK-MEL-2): 77.6 µM
- TGI (SK-MEL-2): 35.5 µM
- GI50 (HCT-15): 15.1 µM
- LC50 (HCT-15): > 100 µM
- TGI (HCT-15): 45.7 µM
- GI50 (HL-60): 6.61 µM
- CC50 (HL-60): 64.6 µM
- TGI (HL-60): 23.4 µM
- Ki (Dihydrofolate reductase): 0.1 µM
- GI50 (BT-549): 17 µM
- CC50 (BT-549): 67.6 µM
- TGI (BT-549): 17 µM
- GI50 (U-251): 24.5 µM
- LC50 (50% lethal concentration) (U-251): > 100 µM
- TGI (U-251): > 100 µM
- GI50 (LOX IMVI): 18.6 µM
- LC50 (LOX IMVI): > 100 µM
- TGI (LOX IMVI): 49 µM
- GI50 (K562): 12.6 µM
- CC50 (K562): > 100 µM
- TGI (K562): 39.8 µM
- GI50 (UACC-257): 29.5 µM
- LC50 (UACC-257): > 100 µM
- TGI (UACC-257): > 100 µM
- GI50 (IGROV-1): 15.8 µM
- LC50 (IGROV-1): > 100 µM
- TGI (IGROV-1): 57.5 µM
- GI50 (NCI-H460): 17 µM
- LC50 (concentration killing 50% of cells) (NCI-H460): > 100 µM
- TGI (NCI-H460): 52.5 µM

Source: ChEMBL document CHEMBL1149774, “Synthesis of N-(5,7-diamino-3-phenyl-quinoxalin-2-yl)-3,4,5-substituted anilines and N-[4[(5,7-diamino-3-phenylquinoxalin-2-yl)amino]benzoyl]-l-glutamic acid diethyl ester: evaluation of in vitro anti-cancer and anti-folate activities” (Eur J Med Chem, 2008)
